Values quoted from earlier work in patent publication US20140080846A1, “Method of treating orphan respiratry diseases using doxofylline” (priority 2012, published 2014).

Assays:
[1] = intravenous, CF patients
[2] = for subjects dropped out of the study due to side effects: large randomized clinical study, 12 week testing period, asthma patients

Row | SMILES | patients treated in an emergency setting for overdose who die | effect on Forced Expiratory Volume at 1 second (FEV1) and Forced Expiratory Flow at 0.75 seconds (FEF 0.75) [1] | subjects dropped out of the study due to side effects [2] | efficacy in treating chronic asthma ([2]; compared to theophylline)
1 | Cn1c(=O)c2[nH]cnc2n(C)c1=O [theophylline] | Ten | positive results | 31% | –
2 | Cn1c(=O)c2c(ncn2CC2OCCO2)n(C)c1=O [doxofylline, 7-(1,3-dioxolan-2-ylmethyl)-1,3-dimethylpurine-2,6-dione] | – | – | 11% | as effective as theophylline
